We go through nine compounds from patent US20240148821A1, “PHARMACEUTICAL USE OF CYCLIC PEPTIDE COMPOUND” (CHUGAI SEIYAKU KABUSHIKI KAISHA, priority 2021, published 2024).

Numbered stars: 1 amine (or outer) side, 2 acyl side, 3 side chain; on linkers, the order of the positions; unused ones are H or OH. Bridge positions count the residues as written; N and C are the ends. Square brackets hold non-standard residues; d marks the D form. Peptide text beside a SMILES is read from it. * marks the point of attachment. hPhe(3,5-F2-4-CF3) = N[C@@H](CCc1cc(F)c(C(F)(F)F)c(F)c1)C(=O)O; hPhe(3-Cl-4-CF3) = N[C@@H](CCc1ccc(C(F)(F)F)c(Cl)c1)C(=O)O; NMePhe(3-CN) = CN[C@@H](Cc1cccc(C#N)c1)C(=O)O; NMePhe(4-Cl) = CN[C@@H](Cc1ccc(Cl)cc1)C(=O)O; NMePhe(4-Me) = CN[C@@H](Cc1ccc(C)cc1)C(=O)O; NMedβ3hAla = C[C@H](CC(=O)[*:2])N(C)[*:1]; Leu(4,5-dehydro) = C=C(C)C[C@H](N)C(=O)O; NMeGly(cPent) = CN[C@H](C(=O)O)C1CCCC1; Phe(3-I) = N[C@@H](Cc1cccc(I)c1)C(=O)O; Pro(4,4-F2) = O=C(O)[C@@H]1CC(F)(F)CN1; Phe(2-F) = N[C@@H](Cc1ccccc1F)C(=O)O; NMeGly(cBu) = CN[C@H](C(=O)O)C1CCC1; NMeCha = CN[C@@H](CC1CCCCC1)C(=O)O; NMeChg = CN[C@H](C(=O)O)C1CCCCC1; NMeD = CN[C@@H](CC(=O)O)C(=O)O; NMeL = CN[C@@H](CC(C)C)C(=O)O; NMehSer = CN[C@@H](CCO)C(=O)O; Cba = N[C@@H](CC1CCC1)C(=O)O; NMeNva = CCC[C@H](NC)C(=O)O; NMeV = CN[C@H](C(=O)O)C(C)C; NMeA = CN[C@@H](C)C(=O)O; NMeAib = CNC(C)(C)C(=O)O; Piperidide = C1CCN(*)CC1; Pyrrolidide = C1CCN(*)C1; Ac5c = NC1(C(=O)O)CCCC1; Aze = O=C(O)[C@@H]1CCN1; Sar = CNCC(=O)O

In the test the test system is Human pancreatic cancer cell line AsPC-1 (G12D mutation Kras). Briefly: AsPC-1 cell growth inhibition (AsPC-1 CGI). The test is classed as cell-based. Conditions: read-out: AsPC-1 cell growth inhibition, 50% growth inhibitory concentration (IC50 value); 96 hours, CellTiter-Glo, values classified in ranges. (ATP-based viability assays read luminescence as a measure of living cells.)
Procedure: Test compounds were serially dilated with dimethyl sulfoxide, and 200 nL was then dispensed to a U-bottom 96-well plate using Labcyte Echo. […] The cell suspension was dispensed to a. plate containing a test compound at 100 μL per well and incubated at 37° C. in a 5% carbon dioxide gas incubator. 96 hours later, 80 μL of CellTiter-Glo (Promega) was added to each well and fluorescence was measured.
Turning to `CCC[C@H]1C(=O)N[C@@H]([C@@H](C)CC)C(=O)N(C)CC(=O)N(C)CC(=O)N(C)[C@@H](CC2CCCCC2)C(=O)N(C)CC(=O)N[C@@H](CCc2ccc(C(F)(F)F)c(Cl)c2)C(=O)N2CCC[C@H]2C(=O)NC2(CCCC2)C(=O)N(C)[C@@H](C2CCCCC2)C(=O)N(C)[C@H](C(=O)N2CCCC2)CC(=O)N1C` [Compound 2001] ([NMeNva]I[Sar][Sar][NMeCha][Sar][hPhe(3-Cl-4-CF3)]P[Ac5c][NMeChg][NMeD]-Pyrrolidide; lactam N-11), the IC50 was not above 20 nM.
With `CC[C@H](C)[C@@H]1NC(=O)[C@H](CC(C)C)N(C)C(=O)C[C@@H](C(=O)N(C)C)N(C)C(=O)[C@H](C2CCCC2)N(C)C(=O)C2(CCCC2)NC(=O)[C@@H]2CCCN2C(=O)[C@H](CCc2ccc(C(F)(F)F)c(Cl)c2)NC(=O)CN(C)C(=O)[C@H](CC2CCCCC2)N(C)C(=O)CN(C)C(=O)CN(C)C1=O` [Compound 1659] ([NMeL]I[Sar][Sar][NMeCha][Sar][hPhe(3-Cl-4-CF3)]P[Ac5c][NMeGly(cPent)][NMeD]-NMe2; lactam N-11), the IC50 is not above 20 nM.
With `CC[C@H](C)[C@@H]1NC(=O)[C@H](CC(C)C)N(C)C(=O)C[C@@H](C(=O)N2CCCCC2)N(C)C(=O)[C@H](CCOC)N(C)C(=O)C2(CCCC2)NC(=O)[C@@H]2CCCN2C(=O)[C@H](CCc2ccc(C(F)(F)F)c(Cl)c2)NC(=O)CN(C)C(=O)[C@H](CC2CCCCC2)N(C)C(=O)[C@@H]2CCN2C(=O)[C@H](C)N(C)C1=O` [Compound 141] ([NMeL]I[NMeA][Aze][NMeCha][Sar][hPhe(3-Cl-4-CF3)]P[Ac5c][NMehSer](Me)[NMeD]-Piperidide; lactam N-11), the IC50 is more than 500 nM.
For the compound `C=C(C)C[C@@H]1NC(=O)[C@H](Cc2cccc(I)c2)NC(=O)CN(C)C(=O)[C@H](Cc2ccc(Cl)cc2)N(C)C(=O)CN(C)C(=O)CN(C)C(=O)[C@H]([C@@H](C)CC)NC(=O)[C@H](CC(C)C)N(C)C(=O)C[C@@H](C(=O)N2CCCCC2)N(C)C(=O)[C@H](CC(C)C)NC(=O)C(C)(C)N(C)C1=O` [Compound 1421] ([NMeL]I[Sar][Sar][NMePhe(4-Cl)][Sar][Phe(3-I)][Leu(4,5-dehydro)][NMeAib]L[NMeD]-Piperidide; lactam N-11), the IC50 was more than 500 nM.
In the case of `CC(C)C[C@H]1C(=O)N[C@@H](CC2CCC2)C(=O)N(C)CC(=O)N(C)CC(=O)N(C)[C@@H](CC2CCCCC2)C(=O)N(C)CC(=O)N[C@@H](CCc2ccc(C(F)(F)F)c(Cl)c2)C(=O)N2CCC[C@H]2C(=O)NC2(CCCC2)C(=O)N(C)[C@@H](C(C)C)C(=O)N(C)[C@H](C(=O)N2CCCCC2)CC(=O)N1C` [Compound 451] ([NMeL][Cba][Sar][Sar][NMeCha][Sar][hPhe(3-Cl-4-CF3)]P[Ac5c][NMeV][NMeD]-Piperidide; lactam N-11) it was more than 500 nM; in that of `CC[C@H](C)[C@@H]1NC(=O)[C@H](CC(C)C)N(C)C(=O)C[C@@H](C(=O)N2CCCCC2)N(C)C(=O)[C@H](CC(C)C)NC(=O)C(C)(C)N(C)C(=O)[C@H](Cc2ccccc2F)NC(=O)[C@H](Cc2cccc(I)c2)NC(=O)CN(C)C(=O)[C@H](Cc2ccc(C)cc2)N(C)C(=O)CN(C)C(=O)CN(C)C1=O` [Compound 556] ([NMeL]I[Sar][Sar][NMePhe(4-Me)][Sar][Phe(3-I)][Phe(2-F)][NMeAib]L[NMeD]-Piperidide; lactam N-11), more than 500 nM; in that of `CC[C@H](C)[C@@H]1NC(=O)[C@H](C2CCC2)N(C)C(=O)C[C@@H](C(=O)N2CCCC2)N(C)C(=O)[C@H](C2CCCCC2)N(C)C(=O)C2(CCCC2)NC(=O)[C@@H]2CC(F)(F)CN2C(=O)[C@H](CCc2cc(F)c(C(F)(F)F)c(F)c2)NC(=O)CN(C)C(=O)[C@H](CC2CCCCC2)N(C)C(=O)CN(C)C(=O)CN(C)C1=O` [Compound 1295] ([NMeGly(cBu)]I[Sar][Sar][NMeCha][Sar][hPhe(3,5-F2-4-CF3)][Pro(4,4-F2)][Ac5c][NMeChg][NMeD]-Pyrrolidide; lactam N-11), not above 20 nM.
Turning to `CC[C@H](C)[C@@H]1NC(=O)[C@H](CC(C)C)N(C)C(=O)C[C@@H](C)N(C)C(=O)[C@H](C2CCCCC2)N(C)C(=O)C2(CCCC2)NC(=O)[C@@H]2CCCN2C(=O)[C@H](CCc2ccc(C(F)(F)F)c(Cl)c2)NC(=O)CN(C)C(=O)[C@H](CC2CCCCC2)N(C)C(=O)[C@@H]2CCN2C(=O)[C@H](C)N(C)C1=O` [Compound 1813] (cyclo([Ac5c][NMeChg][NMedβ3hAla][NMeL]I[NMeA][Aze][NMeCha][Sar][hPhe(3-Cl-4-CF3)]P)), the IC50 is more than 500 nM.
On to `CC[C@H](C)[C@@H]1NC(=O)[C@H](CC(C)C)N(C)C(=O)C[C@@H](C(=O)N2CCCCC2)N(C)C(=O)[C@H](C(C)C)N(C)C(=O)C2(CCCC2)NC(=O)[C@@H]2CCCN2C(=O)[C@H](CCc2ccc(C(F)(F)F)c(Cl)c2)NC(=O)CN(C)C(=O)[C@H](Cc2cccc(C#N)c2)N(C)C(=O)CN(C)C(=O)CN(C)C1=O` [Compound 710] ([NMeL]I[Sar][Sar][NMePhe(3-CN)][Sar][hPhe(3-Cl-4-CF3)]P[Ac5c][NMeV][NMeD]-Piperidide; lactam N-11), for which the IC50 was more than 500 nM.
